Active and inactive are the calls of the source. No cut-off for these calls is given here.
Assays:
AMPK = assay: Activation of AMPK gamma (unknown origin) assessed as increase in phosphorylation of SAMS peptide by measuring fold change at 10 uM measured after 30 mins by ADP-Glo assay; settings: Homo sapiens, filed as activator
N2a-APPswe [1] = assay: Activation of AMPK in mouse N2a APPswe cells assessed as increase in phosphorylation by measuring pAMPK/AMPK ratio at 10 uM measured after 24 hrs by Western blot analysis; type: cell-based; settings: filed as activator
N2a-APPswe [2] = assay: Activation of AMPK in mouse N2a-APPswe cells assessed as increase in phosphorylated Raptor at Ser792 at 10 uM measured after 3 hrs by Western blot analysis; type: cell-based; settings: filed as activator
N2a-APPswe [3] = assay: Activation of AMPK in mouse N2a-APPswe cells assessed as increase in phosphorylation by measuring pAMPK/AMPK ratio at 5 uM measured after 24 hrs by Western blot analysis; type: cell-based; settings: filed as activator
N2a-APPswe [4] = assay: Activation of AMPK in mouse N2a-APPswe cells assessed as increase in phosphorylated ACC at Ser79 at 10 uM measured after 3 hrs by Western blot analysis; type: cell-based; settings: filed as activator
[5] = Cytotoxicity against mouse N2a-APPswe cells assessed as cell viability at 5 uM measured after 24 hrs by WST-1 assay; type: toxicity, cell-based
N2a-APPswe [6] = assay: Activation of AMPK in mouse N2a-APPswe cells assessed as increase in phosphorylated AMPK at Thr172 at 10 uM measured after 3 hrs by Western blot analysis; type: cell-based; settings: filed as activator
N2a-APPswe [7] = assay: Activation of AMPK in mouse N2a-APPswe cells assessed as increase in phosphorylation by measuring pACC/ACC ratio at 10 uM measured after 24 hrs by Western blot analysis; type: cell-based; settings: filed as activator

| SMILES | fold change (FC) (AMPK) | fold change (FC) (N2a-APPswe [1]) | fold change (FC) (N2a-APPswe [7]) | also measured |
| --- | --- | --- | --- | --- |
| COc1ccc(/C=C/C(=O)c2cccc(NS(=O)(=O)c3ccc(Cl)cc3)c2)cc1 | 1.82 |  |  |  |
| Cc1cc(C)c(C)c(Oc2coc3cc(OC(=O)C(C)N4C(=O)c5ccccc5C4=O)ccc3c2=O)c1 (centres undefined) |  | > 1 |  |  |
| COc1ccc(OC)c(/C=C/C(=O)c2ccc(NS(=O)(=O)c3ccc(Cl)cc3)cc2)c1 | 2.45 |  |  | Activity (N2a-APPswe [2]): Active; fold change (FC) (N2a-APPswe [3]): > 1; Activity (N2a-APPswe [4]): Active; Activity [5]: Non-toxic; Activity (N2a-APPswe [6]): Active |
| CCOC(=O)N1CCN(C(=O)c2ccc(N3CCC(NCCn4nc(C)cc4C)CC3)cc2)CC1 |  | > 1 | > 1 |  |
| NC(=O)c1ncn([C@@H]2O[C@H](CO)[C@@H](O)[C@H]2O)c1N |  | > 1 | > 1 |  |
| COc1cc(O)ccc1/C=C/C(=O)c1ccc(N2CCNCC2)cc1 | 1.51 |  |  |  |
| Cc1ccc(C)c(Oc2coc3cc(OC(=O)c4cccc(Br)c4)ccc3c2=O)c1 |  | > 1 | > 1 |  |
| O=C(/C=C/c1ccc(N2CCCCC2)cc1)c1ccc(O)cc1 | 2.96 |  |  | fold change (FC) (N2a-APPswe [3]): > 1; Activity [5]: Non-toxic |
| COc1ccc2c(=O)c(Oc3cc(C)ccc3C)coc2c1 |  | > 1 |  |  |
| CN1CCN(c2ccc(C(=O)/C=C/c3ccc(O)cc3)cc2)CC1 | 1.52 |  |  |  |
| CCOCCOC(=O)COc1ccc2c(=O)c(Oc3cc(C)ccc3C)coc2c1 |  | > 1 |  |  |
| CN1[C@@H](c2ccccc2)[C@@H](C(=O)NCCn2ccnc2)C[C@@]1(C)C(=O)O |  | > 1 | > 1 |  |
| COc1ccc(/C=C/C(=O)c2ccc(N)cc2)c(OC)c1 |  |  |  | Activity [5]: Non-toxic |
| O=C(CCn1cnnn1)N1CCCC(N2CCN(c3cccc(C(F)(F)F)c3)CC2)C1 (centres undefined) |  | > 1 | > 1 |  |
| N#CC1C(=O)Nc2scc(-c3ccc(-c4ccccc4O)cc3)c2C1=O (centres undefined) |  | > 1 | > 1 | fold change (FC) (N2a-APPswe [3]): > 1 |
| Cn1ccnc1CNC(=O)CCc1nnc(-c2ccc(-c3ccccc3)cc2)o1 |  | > 1 | > 1 |  |
| Cc1cc(-c2cc3c(n(Cc4cccnc4)c2=O)CCN(C(=O)c2ccc4c(c2)OCO4)C3)ccc1F |  | > 1 | > 1 |  |
| COc1ccc(/C=C/C(=O)c2cccc(N)c2)cc1 | 2.3 |  |  | fold change (FC) (N2a-APPswe [3]): > 1; Activity [5]: Non-toxic |
| COc1ccc(OC)c(/C=C/C(=O)c2cccc(N(S(=O)(=O)c3ccc(Cl)cc3)S(=O)(=O)c3ccc(Cl)cc3)c2)c1 | 2.53 |  |  | fold change (FC) (N2a-APPswe [3]): > 1; Activity [5]: Non-toxic |
| COc1cc(O)ccc1/C=C/C(=O)c1cccc(N)c1 | 1.73 |  |  |  |

| SMILES | fold change (FC) (AMPK) | fold change (FC) (N2a-APPswe [1]) | fold change (FC) (N2a-APPswe [7]) | also measured |
| --- | --- | --- | --- | --- |
| Cc1ccc(C)c(Oc2coc3cc(OCCc4ccccc4)ccc3c2=O)c1 |  | > 1 |  |  |
| COc1ccc(OC)c(/C=C/C(=O)c2ccc(N)cc2)c1 | 1.93 |  |  |  |
| COc1ccc(OC)c(/C=C/C(=O)c2cccc(NS(=O)(=O)c3ccc(Cl)cc3)c2)c1 | 1.94 |  |  |  |
| Nc1ccc(C(=O)/C=C/c2ccc(N3CCCCC3)cc2)cc1 | 2.16 |  |  | fold change (FC) (N2a-APPswe [3]): > 1; Activity [5]: Non-toxic |
| Cc1ccc(NCc2ccc(C(=O)N3CCC(C(=O)O)CC3)cc2)cc1 |  | > 1 | > 1 |  |
| COCCN1C(=O)N(Cc2cccnc2)C(=O)C12CCN(Cc1nc(-c3ccccc3)cs1)CC2 |  | > 1 | < 1 |  |
| Cc1ccc(C)c(Oc2coc3cc(OCC(=O)OC4CCCCC4)ccc3c2=O)c1 |  | > 1 |  |  |
| CCOC(=O)c1nn(CCCc2ccccc2)c2c1CN(C(=O)Cn1nc3ccccc3n1)CC2 |  | > 1 | > 1 |  |
| COc1ccc(OC)c(C(=O)c2ccc(C(=O)N3CCc4c(cnc(C)c4CNC(C)=O)C3)cc2)c1 |  | > 1 | > 1 |  |
| Cc1ccc(C)c(Oc2coc3cc(OC(=O)c4ccc(-c5ccccc5)cc4)ccc3c2=O)c1 |  | > 1 |  |  |
| Nc1cccc(C(=O)/C=C/c2ccc(N3CCCCC3)cc2)c1 | 2.05 |  |  | fold change (FC) (N2a-APPswe [3]): > 1; Activity [5]: Non-toxic |
| Cc1ccc(C)c(Oc2coc3cc(OCC(=O)OCC(C)C)ccc3c2=O)c1 |  | > 1 |  |  |
| Cc1ccc(C)c(Oc2coc3cc(OCc4ccc(F)cc4)ccc3c2=O)c1 |  | > 1 |  |  |
| O=C(O)C1CCCN(C(=O)Cn2nc(-c3ccc4ccccc4c3)ccc2=O)C1 (centres undefined) |  | > 1 | > 1 |  |
| O=C(/C=C/c1ccc(N2CCCCC2)cc1)c1ccc(O)cc1O | 2.48 |  |  | fold change (FC) (N2a-APPswe [3]): > 1; Activity [5]: Non-toxic |
| Cc1ccc(C)c(Oc2coc3cc(OCc4ccc(Cl)cc4Cl)ccc3c2=O)c1 |  | > 1 |  |  |
| Cc1ccc(CCC(=O)Nc2ccc3c(c2)CN(C(=O)CCn2cnnn2)CC3)cc1 |  | > 1 | > 1 |  |
| COc1ccc(OC)c(/C=C/C(=O)c2cccc(N)c2)c1 | 2.62 |  |  | fold change (FC) (N2a-APPswe [3]): > 1; Activity [5]: Non-toxic |
| Cc1ccccc1-c1noc(CCC(=O)NC(C)c2ccccc2-n2cccn2)n1 (centres undefined) |  | > 1 | > 1 |  |

Source: ChEMBL document CHEMBL6103582, “Computer-aided discovery of novel AMPK activators through virtual screening and SAR-driven synthesis” (Eur J Med Chem, 2025)
